# Laboratory results from patent publication US11020398B2, “Amino-pyrrolopyrimidinone compounds and methods of use thereof” (ArQule, Inc., priority 2016, dated 2021).
# Legend:
# [1] = molecular target: full-length activated BTK (wildtype) (Homo sapiens (Human), UniProt Q06187); assay: AlphaScreen assay, wild-type BTK; assay type: biochemical; conditions: for inhibition at 10 µM: read-out: BTK % @ 10 uM, @ 10 uM
# [2] = molecular target: full-length activated BTK mutant C481S (Homo sapiens (Human), UniProt Q06187, C481S); assay: AlphaScreen assay, BTK mutant C481S; assay type: biochemical; conditions: for inhibition at 10 µM: read-out: BTK-C481S % @ 10 uM, @ 10 uM
# Chain of full-length activated BTK mutant C481S (Q06187 whole entry C481S): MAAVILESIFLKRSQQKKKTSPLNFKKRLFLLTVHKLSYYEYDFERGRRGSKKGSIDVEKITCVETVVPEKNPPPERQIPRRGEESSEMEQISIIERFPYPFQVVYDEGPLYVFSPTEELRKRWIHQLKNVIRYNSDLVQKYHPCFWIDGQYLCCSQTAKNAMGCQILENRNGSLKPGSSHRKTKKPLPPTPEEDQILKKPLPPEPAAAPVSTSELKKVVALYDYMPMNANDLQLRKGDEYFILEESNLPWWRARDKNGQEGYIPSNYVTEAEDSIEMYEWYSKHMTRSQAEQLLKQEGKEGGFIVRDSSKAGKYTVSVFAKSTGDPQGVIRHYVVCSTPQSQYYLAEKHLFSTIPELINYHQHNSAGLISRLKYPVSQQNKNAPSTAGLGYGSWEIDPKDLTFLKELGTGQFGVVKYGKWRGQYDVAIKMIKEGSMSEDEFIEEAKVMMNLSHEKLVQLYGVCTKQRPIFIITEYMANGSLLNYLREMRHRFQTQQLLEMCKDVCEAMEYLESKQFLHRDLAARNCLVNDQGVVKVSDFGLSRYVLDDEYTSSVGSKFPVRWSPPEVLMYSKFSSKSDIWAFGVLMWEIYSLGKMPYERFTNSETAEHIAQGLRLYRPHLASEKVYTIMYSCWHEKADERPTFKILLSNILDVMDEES
# Chain of full-length activated BTK (wildtype) (Q06187 whole entry): as the sequence (Q06187 whole entry C481S) above, with S481C counted along it
SMILES,inhibition at 10 µM [1] [%],inhibition at 10 µM [2] [%],IC50 [1] [nM],IC50 [2] [nM]
"COCCNC(=O)c1cccc(C(=O)c2c[nH]c3ncnc(N[C@@H]4CC[C@@H](CO)OC4)c23)c1 [Compound I-637, 3-(4-(((3R,6S)-6-(hydroxymethyl)tetrahydro-2H-pyran-3-yl)amino)-7H-pyrrolo[2,3-d]pyrimidine-5-carbonyl)-N-(2-methoxyethyl)benzamide]",76,55,,
"C=CS(=O)(=O)N1CCCC1CNc1ncnc2[nH]cc(C(=O)c3ccc(Oc4ccccc4)cc3Cl)c12 (racemic) [Compound I-326r, (racemic)-(2-chloro-4-phenoxyphenyl)(4-(((1-(vinylsulfonyl)pyrrolidin-2-yl)methyl)amino)-7H-pyrrolo[2,3-d]pyrimidin-5-yl)methanone]",,,4.33,419
"O=C(Nc1ccc(Cl)c(C(=O)c2c[nH]c3ncnc(N[C@@H]4CC[C@@H](CO)OC4)c23)c1)c1cc2c(cn1)CCCC2 [Compound I-606, N-(4-chloro-3-(4-(((3R,6S)-6-(hydroxymethyl)tetrahydro-2H-pyran-3-yl)amino)-7H-pyrrolo[2,3-d]pyrimidine-5-carbonyl)phenyl)-5,6,7,8-tetrahydroisoquinoline-3-carboxamide]",,,0.98,55.9
"O=C(c1ccc(Nc2ccccc2)cc1Cl)c1c[nH]c2ncnc(N[C@@H]3CC[C@@H](CO)OC3)c12 [Compound I-650, (2-Chloro-4-(phenylamino)phenyl)(4-(((3R,6S)-6-(hydroxymethyl)tetrahydro-2H-pyran-3-yl)amino)-7H-pyrrolo[2,3-d]pyrimidin-5-yl)methanone]",,,202,326
"O=C(c1ccc(C(=O)N2CCc3ccccc3C2)cc1Cl)c1c[nH]c2ncnc(N[C@@H]3CC[C@@H](CO)OC3)c12 [Compound I-615, (2-chloro-4-(1,2,3,4-tetrahydroisoquinoline-2-carbonyl)phenyl)(4-(((3R,6S)-6-(hydroxymethyl)tetrahydro-2H-pyran-3-yl)amino)-7H-pyrrolo[2,3-d]pyrimidin-5-yl)methanone]",,,86.4,34.1
"O=C(Nc1ccccc1)c1cccc(C(=O)c2c[nH]c3ncnc(N[C@@H]4CC[C@@H](CO)OC4)c23)c1 [Compound I-634, 3-(4-(((3R,6S)-6-(hydroxymethyl)tetrahydro-2H-pyran-3-yl)amino)-7H-pyrrolo[2,3-d]pyrimidine-5-carbonyl)-N-phenylbenzamide]",,,620,690
"O=C(COCc1ccccc1)Nc1ccc(C(=O)c2c[nH]c3ncnc(N[C@@H]4CC[C@@H](CO)OC4)c23)c(Cl)c1 [Compound I-641, 2-(benzyloxy)-N-(3-chloro-4-(4-(((3R,6S)-6-(hydroxymethyl)tetrahydro-2H-pyran-3-yl)amino)-7H-pyrrolo[2,3-d]pyrimidine-5-carbonyl)phenyl) acetamide]",,,8.28,32.6
"O=C(Nc1ccc(Cl)c(C(=O)c2c[nH]c3ncnc(N[C@@H]4CC[C@@H](CO)OC4)c23)c1)c1cncs1 [Compound I-604, N-(4-chloro-3-(4-(((3R,6S)-6-(hydroxymethyl)tetrahydro-2H-pyran-3-yl)amino)-7H-pyrrolo[2,3-d]pyrimidine-5-carbonyl)phenyl)thiazole-5-carboxamide]",,,304,731
"O=C(Nc1cccnc1)Nc1ccc(Cl)c(C(=O)c2c[nH]c3ncnc(N[C@@H]4CC[C@@H](CO)OC4)c23)c1 [Compound I-609, 1-(4-chloro-3-(4-(((3R,6S)-6-(hydroxymethyl)tetrahydro-2H-pyran-3-yl)amino)-7H-pyrrolo[2,3-d]pyrimidine-5-carbonyl)phenyl)-3-(pyridin-3-yl)urea]",,,114,519
"CNC(=O)c1cccc(Oc2ccc(C(=O)c3c[nH]c4ncnc(N[C@@H]5CC[C@@H](CO)OC5)c34)c(Cl)c2)n1 [Compound I-319, 6-(3-chloro-4-(4-(((3R,6S)-6-(hydroxymethyl)tetrahydro-2H-pyran-3-yl)amino)-7H-pyrrolo[2,3-d]pyrimidine-5-carbonyl)phenoxy)-N-methyl picolinamide]",,,444,127
"O=C(c1ccc(C(=O)N2CCN(c3ccccn3)CC2)cc1Cl)c1c[nH]c2ncnc(N[C@@H]3CC[C@@H](CO)OC3)c12 [Compound I-616, (3-chloro-4-(4-(((3R,6S)-6-(hydroxymethyl)tetrahydro-2H-pyran-3-yl)amino)-7H-pyrrolo[2,3-d]pyrimidine-5-carbonyl)phenyl)(4-(pyridin-2-yl)piperazin-1-yl)methanone]",,,116,506

# Second part, the molecule after the results:
inhibition at 10 µM [1] [%],inhibition at 10 µM [2] [%],IC50 [1] [nM],IC50 [2] [nM],SMILES
,53,1210,,"COCCNC(=O)c1ccc(Cl)c(C(=O)c2c[nH]c3ncnc(N[C@@H]4CC[C@@H](CO)OC4)c23)c1 [Compound I-624, 4-chloro-3-(4-(((3R,6S)-6-(hydroxymethyl)tetrahydro-2H-pyran-3-yl)amino)-7H-pyrrolo[2,3-d]pyrimidine-5-carbonyl)-N-(2-methoxyethyl) benzamide]"
,,269,150,"O=C(Nc1cccc(C(=O)c2c[nH]c3ncnc(N[C@@H]4CC[C@@H](CO)OC4)c23)c1)c1ccccn1 [Compound I-643, N-(3-(4-(((3R,6S)-6-(hydroxymethyl)tetrahydro-2H-pyran-3-yl)amino)-7H-pyrrolo[2,3-d]pyrimidine-5-carbonyl)phenyl)picolinamide]"
,,140,317,"O=C(Cc1ccccc1)Nc1ccc(Cl)c(C(=O)c2c[nH]c3ncnc(N[C@@H]4CC[C@@H](CO)OC4)c23)c1 [Compound I-602, N-(4-chloro-3-(4-(((3R,6S)-6-(hydroxymethyl)tetrahydro-2H-pyran-3-yl)amino)-7H-pyrrolo[2,3-d]pyrimidine-5-carbonyl)phenyl)-2-phenylacetamide]"
,,11,34,"O=C(c1ccc(Oc2ccccc2)cc1Cl)c1c[nH]c2ncnc(NC3CCC(CO)NC3)c12 (racemic) [Compound I-343r, rac-(2-chloro-4-phenoxyphenyl)(4-((6-(hydroxymethyl)piperidin-3-yl)amino)-7H-pyrrolo[2,3-d]pyrimidin-5-yl)methanone]"
,,87.4,399,"O=C(NCc1ccccc1)c1ccc(C(=O)c2c[nH]c3ncnc(N[C@@H]4CC[C@@H](CO)OC4)c23)c(Cl)c1 [Compound I-618, N-benzyl-3-chloro-4-(4-(((3R,6S)-6-(hydroxymethyl)tetrahydro-2H-pyran-3-yl)amino)-7H-pyrrolo[2,3-d]pyrimidine-5-carbonyl)benzamide]"
,,124,185,"O=C(c1cc(C(=O)N2CCCCC2)ccc1Cl)c1c[nH]c2ncnc(N[C@@H]3CC[C@@H](CO)OC3)c12 [Compound I-623, (4-chloro-3-(4-(((3R,6S)-6-(hydroxymethyl)tetrahydro-2H-pyran-3-yl)amino)-7H-pyrrolo[2,3-d]pyrimidine-5-carbonyl)phenyl)(piperidin-1-yl)methanone]"
84,66,,,"O=C(c1ccc(C(=O)N2CCOCC2)cc1)c1c[nH]c2ncnc(N[C@@H]3CC[C@@H](CO)OC3)c12 [Compound I-632, (4-(((3R,6S)-6-(hydroxymethyl)tetrahydro-2H-pyran-3-yl)amino)-7H-pyrrolo[2,3-d]pyrimidin-5-yl)(4-(morpholine-4-carbonyl)phenyl) methanone]"
